Results taken from US20100086958A1, “NOVEL ENZYME” (priority 2008, published 2010).

Assays:
Bsp184FDH = test: Inhibition studies of Bsp184FDH-catalysed formate oxidation; format: biochemical, Burkholderia cenocepacia PC184
Experimental: (§1) Inhibition of formate oxidation by Bsp383FDH or Bsp184FDH was performed in the presence of the following potential inhibitors: NaN3, NaNO2, KNO3, KNO2, KCN and iodoacetamide at 5 mM and 20 mM concentrations. In a typical procedure, 10 μL of enzyme, Bsp383FDH (0.022 mg/mL) or Bsp184FDH (0.020 mg/mL) was incubated in sodium phosphate buffer (50 mM, pH 7.0) containing 100 mM of formate (sodium formate) and 5 mM and 20 mM inhibitors concentrations for 5 minutes at room temperature. Reaction of formate oxidation was then initiated by addition of NADP in 5 mM final concentration. Absorbance at 340 nm due to NADPH formation was spectrophotometrically monitored using a microtiter plate reader. Absorbance was recorded at 10 seconds intervals for 10 minutes. Initial activities were then calculated using the linear part of the initial readings using at least 20 data points and used directly as relative activity values. Control experiments were also performed in the absence of the enzyme.

Bsp383FDH = test: Inhibition studies of Bsp383FDH-catalysed formate oxidation; format: biochemical, Burkholderia sp. 383
Experimental: as §1

Compound: O=C[O-].[Na+] [Formate salt]
- inhibition of BcenFDH1 (Bsp184FDH): does not inhibit
- inhibition of BspFDH2 (Bsp383FDH): does not inhibit
